Tests used:
crabgrass, large [1] = experiment: Test A preemergence; type: in vivo, Digitaria sanguinalis; conditions: preemergence
Procedure, shortened: (§1)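 Visual injury ratings, 0 = no effect to 100 = complete control, taken about 10 days after treatment against untreated controls. Test chemicals, in a non-phytotoxic surfactant-containing solvent, were sprayed onto soil preemergence or onto one- to two-leaf plants (2–10 cm) postemergence, in loam–sand soil under greenhouse conditions.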

velvetleaf = experiment: Test A preemergence; type: in vivo, Abutilon theophrasti; conditions: preemergence
Procedure, shortened: as §1

wheat [2] = experiment: Test A preemergence; type: in vivo, Triticum aestivum; conditions: preemergence
Procedure, shortened: as §1

foxtail, giant [3] = experiment: Test A postemergence; type: in vivo, Setaria faberii
Procedure, shortened: as §1

sedge, umbrella = experiment: Test B flood; type: in vivo, Cyperus difformis; conditions: 250 g ai/ha, visual rating on 0 to 100 scale (0 no effect, 100 complete control), 13 to 15 days
Procedure, shortened: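 Each compound is applied to the floodwater of pots holding 2-leaf seedlings, water standing 3 cm over the soil throughout. Plants stay in a greenhouse 13 to 15 days before visual scoring against controls from 0 (no effect) to 100 (complete control).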

wheat [4] = experiment: Test C preemergence; type: in vivo, Triticum aestivum; conditions: for Plant response rating (scale of 0 to 100), Wheat: Preemergence, 250 g ai/ha; for Wheat plant response rating: preemergence
Procedure, shortened: (§2)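 Visual control ratings on a 0–100 scale (100 = complete control) made against untreated controls after 13 to 15 days in greenhouse. Compounds applied in surfactant-containing solvent mixture, either preemergence to loam/sand-sown seeds or postemergence to 1- to 4-leaf plants (2–18 cm) in peat medium.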

corn = experiment: Test C preemergence; type: in vivo, Zea mays; conditions: for Plant response rating (scale of 0 to 100), Corn: Preemergence, 250 g ai/ha; for Corn plant response rating: preemergence
Procedure, shortened: as §2

johnsongrass = experiment: Test C preemergence; type: in vivo, Sorghum halepense; conditions: for Plant response rating (scale of 0 to 100), Johnsongrass: Preemergence, 250 g ai/ha; for Johnsongrass plant response rating: preemergence
Procedure, shortened: as §2

ragweed = experiment: Test C preemergence; type: in vivo, Ambrosia elation; conditions: for Plant response rating (scale of 0 to 100), Ragweed: Preemergence, 250 g ai/ha; for Ragweed plant response rating: preemergence
Procedure, shortened: as §2

blackgrass = experiment: Test C postemergence; type: in vivo, Alopecurus myosuroides; conditions: for Plant response rating (scale of 0 to 100 where 0 is no effect and 100 is complete control), Blackgrass: Postemergence, 31 g ai/ha, visually evaluated after 13 to 15 days; for Blackgrass plant response rating / Plant response rating, Blackgrass: postemergence; for Blackgrass plant response rating: 62 g ai/ha, scale 0 to 100
Procedure, shortened: as §2

crabgrass, large [5] = experiment: Test C postemergence; type: in vivo, Digitaria sanguinalis; conditions: for Plant response rating (scale of 0 to 100 where 0 is no effect and 100 is complete control), Crabgrass, Large: Postemergence, 31 g ai/ha, visually evaluated after 13 to 15 days; for Crabgrass, Large plant response rating / Plant response rating, Crabgrass, Large: postemergence; for Crabgrass, Large plant response rating: 62 g ai/ha, scale 0 to 100
Procedure, shortened: as §2

foxtail, giant [6] = experiment: Test C postemergence; type: in vivo, Setaria faberii; conditions: for Plant response rating (scale of 0 to 100 where 0 is no effect and 100 is complete control), Foxtail, Giant: Postemergence, 31 g ai/ha, visually evaluated after 13 to 15 days; for Foxtail, Giant plant response rating / Plant response rating, Foxtail, Giant: postemergence; for Foxtail, Giant plant response rating: 62 g ai/ha, scale 0 to 100
Procedure, shortened: as §2

waterhemp = experiment: Test C postemergence; type: in vivo, Amaranthus rudis; conditions: for Plant response rating (scale of 0 to 100 where 0 is no effect and 100 is complete control), Waterhemp: Postemergence, 31 g ai/ha, visually evaluated after 13 to 15 days; for Waterhemp plant response rating / Plant response rating, Waterhemp: postemergence; for Waterhemp plant response rating: 62 g ai/ha, scale 0 to 100
Procedure, shortened: as §2

[7] = 125 g ai/ha, visual injury, 0 to 100 scale, approx. 10 days
[8] = 500 g ai/ha, visual injury after approx. 10 days, 0 to 100 scale (0 no effect, 100 complete control)
[9] = Postemergence, 500 g ai/ha, visual rating after approx. 10 days, 0 to 100 scale (0 no effect, 100 complete control)
[10] = postemergence, 125 g ai/ha, about 10 days, visual rating on 0 to 100 scale (0 no effect, 100 complete control)
[11] = 31 g ai/ha, visual rating, scale 0 to 100 (0 no effect, 100 complete control), 13 to 15 days
[12] = 62 g ai/ha, scale 0 to 100 (0 no effect, 100 complete control), 13 to 15 days
[13] = 125 g ai/ha, scale 0 to 100, 0 is no effect, 100 is complete control
[14] = 250 g ai/ha, scale 0 to 100 (0 no effect, 100 complete control)
[15] = 125 g ai/ha, scale 0 to 100, 0 no effect, 100 complete control

Structure (SMILES): CCc1cc(C(=O)NCC(F)(F)F)nn1Cc1cc(C(F)(F)F)nn1C [Compound 108, 5-ethyl-1-[[1-methyl-3-(trifluoromethyl)-1H-pyrazole-5-yl]methyl]-N-(2,2,2-trifluoroethyl)-1H-pyrazole-3-carboxamide]
- Crabgrass, Large plant response rating (crabgrass, large [1]; [7]): 100
- Crabgrass, Large plant response rating (crabgrass, large [1]; [8]): 100
- Velvetleaf plant response rating (velvetleaf; [7]): 60
- Velvetleaf plant response rating (velvetleaf; [8]): 100
- Wheat plant response rating (wheat [2]; [7]): 10
- Wheat plant response rating (wheat [2]; [8]): 100
- Foxtail, Giant plant response rating (foxtail, giant [3]; [9]): 100
- Foxtail, Giant plant response rating (foxtail, giant [3]; [10]): 90
- Plant response rating, Sedge, Umbrella (sedge, umbrella): 70
- Plant response rating (scale of 0 to 100), Wheat (wheat [4]): 70
- Wheat plant response rating (wheat [4]; [11]): 10
- Wheat plant response rating (wheat [4]; [12]): 10
- Wheat plant response rating (wheat [4]; [13]): 60
- Plant response rating (scale of 0 to 100), Corn (corn): 95
- Corn plant response rating (corn; [11]): 5
- Corn plant response rating (corn; [12]): 30
- Corn plant response rating (corn; [13]): 95
- Plant response rating (scale of 0 to 100), Johnsongrass (johnsongrass): 100
- Johnsongrass plant response rating (johnsongrass; [11]): 35
- Johnsongrass plant response rating (johnsongrass; [12]): 90
- Johnsongrass plant response rating (johnsongrass; [13]): 100
- Plant response rating (scale of 0 to 100), Ragweed (ragweed): 100
- Ragweed plant response rating (ragweed; [11]): 95
- Ragweed plant response rating (ragweed; [12]): 95
- Ragweed plant response rating (ragweed; [13]): 95
- Plant response rating (scale of 0 to 100 where 0 is no effect and 100 is complete control), Blackgrass (blackgrass): 0
- Blackgrass plant response rating (blackgrass): 5
- Plant response rating, Blackgrass (blackgrass; [14]): 30
- Plant response rating, Blackgrass (blackgrass; [15]): 5
- Plant response rating (scale of 0 to 100 where 0 is no effect and 100 is complete control), Crabgrass, Large (crabgrass, large [5]): 5
- Crabgrass, Large plant response rating (crabgrass, large [5]): 10
- Plant response rating, Crabgrass, Large (crabgrass, large [5]; [14]): 50
- Plant response rating, Crabgrass, Large (crabgrass, large [5]; [15]): 10
- Plant response rating (scale of 0 to 100 where 0 is no effect and 100 is complete control), Foxtail, Giant (foxtail, giant [6]): 10
- Foxtail, Giant plant response rating (foxtail, giant [6]): 30
- Plant response rating, Foxtail, Giant (foxtail, giant [6]; [14]): 45
- Plant response rating, Foxtail, Giant (foxtail, giant [6]; [15]): 40
- Plant response rating (scale of 0 to 100 where 0 is no effect and 100 is complete control), Waterhemp (waterhemp): 5
- Waterhemp plant response rating (waterhemp): 50
- Plant response rating, Waterhemp (waterhemp; [14]): 80
- Plant response rating, Waterhemp (waterhemp; [15]): 50

Structure (SMILES): CCCNC(=O)c1cc(CC)n(Cc2nc(C(F)(F)F)nn2C)n1 [Compound 109]
- Crabgrass, Large plant response rating (crabgrass, large [1]; [7]): 100
- Crabgrass, Large plant response rating (crabgrass, large [1]; [8]): 100
- Velvetleaf plant response rating (velvetleaf; [7]): 70
- Velvetleaf plant response rating (velvetleaf; [8]): 100
- Wheat plant response rating (wheat [2]; [7]): 30
- Wheat plant response rating (wheat [2]; [8]): 90
- Foxtail, Giant plant response rating (foxtail, giant [3]; [9]): 90
- Foxtail, Giant plant response rating (foxtail, giant [3]; [10]): 90
- Plant response rating, Sedge, Umbrella (sedge, umbrella): 0
- Plant response rating (scale of 0 to 100), Wheat (wheat [4]): 85
- Wheat plant response rating (wheat [4]; [11]): 0
- Wheat plant response rating (wheat [4]; [12]): 15
- Wheat plant response rating (wheat [4]; [13]): 85
- Plant response rating (scale of 0 to 100), Corn (corn): 100
- Corn plant response rating (corn; [11]): 25
- Corn plant response rating (corn; [12]): 85
- Corn plant response rating (corn; [13]): 95
- Plant response rating (scale of 0 to 100), Johnsongrass (johnsongrass): 100
- Johnsongrass plant response rating (johnsongrass; [11]): 80
- Johnsongrass plant response rating (johnsongrass; [12]): 90
- Johnsongrass plant response rating (johnsongrass; [13]): 100
- Plant response rating (scale of 0 to 100), Ragweed (ragweed): 100
- Ragweed plant response rating (ragweed; [11]): 100
- Ragweed plant response rating (ragweed; [12]): 100
- Ragweed plant response rating (ragweed; [13]): 100
- Plant response rating (scale of 0 to 100 where 0 is no effect and 100 is complete control), Blackgrass (blackgrass): 5
- Blackgrass plant response rating (blackgrass): 5
- Plant response rating, Blackgrass (blackgrass; [14]): 15
- Plant response rating, Blackgrass (blackgrass; [15]): 10
- Plant response rating (scale of 0 to 100 where 0 is no effect and 100 is complete control), Crabgrass, Large (crabgrass, large [5]): 5
- Crabgrass, Large plant response rating (crabgrass, large [5]): 10
- Plant response rating, Crabgrass, Large (crabgrass, large [5]; [14]): 45
- Plant response rating, Crabgrass, Large (crabgrass, large [5]; [15]): 10
- Plant response rating (scale of 0 to 100 where 0 is no effect and 100 is complete control), Foxtail, Giant (foxtail, giant [6]): 10
- Foxtail, Giant plant response rating (foxtail, giant [6]): 10
- Plant response rating, Foxtail, Giant (foxtail, giant [6]; [14]): 50
- Plant response rating, Foxtail, Giant (foxtail, giant [6]; [15]): 45
- Plant response rating (scale of 0 to 100 where 0 is no effect and 100 is complete control), Waterhemp (waterhemp): 35
- Waterhemp plant response rating (waterhemp): 35
- Plant response rating, Waterhemp (waterhemp; [14]): 75
- Plant response rating, Waterhemp (waterhemp; [15]): 60

Source: US20150105252A1, “SUBSTITUTED PYRAZOLES AS HERBICIDES” (E I DU PONT DE NEMOURS AND COMPANY, priority 2013, published 2015)
